Results reported in publication PMC3660367, “MARCKS Protein Is Phosphorylated and Regulates Calcium Mobilization during Human Acrosomal Exocytosis” (PLoS ONE, 2013).

Legend:
[1] = tested on: phosphorylated MARCKS in human sperm; assay: Phosphorylated MARCKS level in stimulated sperm by Western blot (anti-phospho-MARCKS); type: cell-based; conditions: non-permeabilized capacitated sperm; 100 µM 2-APB 15 min, then 20 min 10 µM A23187, 200 nM PMA or 15 µM progesterone; normalized against β-tubulin; three experiments
Experimental: To examine the presence of MARCKS and phosphorylated MARCKS, the fraction of motile sperm capacitated for 2–3 h in BSA supplemented-HTF medium was used. After removing the HTF by washing cells twice with cold PBS, sperm pellets were resuspended in sample buffer (2% SDS, 10% glycerol, and 62.5 mM Tris-HCl pH 6.8) without disulfide reducing agents. Proteins were extracted by heating three times to 95°C for 4 min each. Extracts were centrifuged (12,000×g) for 10 min, and the supernatants were adjusted to 5% β-mercaptoethanol. Protein were resolved on 10% polyacrylamide gels according to [23], and transferred to PVDF membranes (Millipore). Non-specific reactivity was blocked by incubation for 1 h at room temperature (RT) with 5% skim milk dissolved in tris-buffered saline with 0.1% Tween-20 (T-TBS: 50 mM Tris-HCl pH 7.4, 150 mM NaCl, 0.1% Tween-20). Blots were incubated with primary anti-MARCKS antibody from Abcam (0.26 µg/ml), anti-MARCKS N-19 from Santa Cruz (0.13 µg/ml), or anti-phospho-MARCKS (0.06 µg/ml), in blocking solution overnight at 4°C. Biotinylated, goat anti-mouse-IgG (0.076 µg/ml), biotinylated, rabbit anti-goat-IgG (0.4 µg/ml) or biotinylated, goat anti-rabbit-IgG (0.076 µg/ml) were used as secondary antibodies during 60 min incubations at RT. Blots were then incubated with peroxidase-conjugated streptavidin (0.17 µg/ml) during 60 min incubations at RT. Excess first and second antibodies, and peroxidase-conjugated streptavidin were removed by washing five times for 10 min each in T-TBS. For loading control blots were reprobed with anti-β-tubulin. […]
Figure 5 Assessing MARCKS function on acrosomal exocytosis in non-permeabilized sperm. […] The increase in fluorescence is expressed as (F/F0)-1 ((maximum fluorescence intensity/initial fluorescence)-1) versus time in seconds. […] (D) Quantification of three independent experiments. […] Phosphorylated MARCKS was detected by Western blot assay using an anti-phospho-MARCKS antibody. […]

[2] = tested on: acrosomal exocytosis in permeabilized human sperm; assay: Acrosomal exocytosis assay in SLO-permeabilized human sperm (FITC-PSA lectin staining); type: cell-based; conditions: 1 µM MARCKS ED 15 min, then 50 µM PIP2 or 5 µM adenophostin, then 10 µM free Ca2+ or 200 nM PMA
Experimental: Acrosomal exocytosis assays were performed as previously described. Briefly, human semen obtained from normal healthy donors was allowed to liquefy for 30-60 min at 37°C. We used a swim-up protocol to isolate highly motile sperm under capacitating conditions in Human Tubal Fluid media (HTF, as formulated by Irvine Scientific, Santa Ana, CA) supplemented with 0.5% bovine serum albumin (BSA) for 1 h at 37°C in an atmosphere of 5% CO2/95% air. Sperm concentrations were adjusted to 5–10×10^6 cells/ml and incubated for at least 2 h under capacitating conditions. We have shown previously that human sperm incubated under these conditions are responsive to progesterone. […] Acrosomal status was evaluated by staining with FITC-coupled Pisum sativum agglutinin (FITC-PSA) according to [21]. At least 200 cells were scored using a Nikon Optiphot II microscope equipped with epifluorescence optics. […] For each experiment, acrosomal exocytosis indexes were calculated by subtracting the number of reacted spermatozoa in the negative control (range 10%–30%) from all values, and expressing the resulting values as a percentage of the acrosome exocytosis observed in the positive control (range 25%–40%). […] Data were evaluated using one-way ANOVA and post hoc tests (Dunnett's test or confident intervals). […]

Row | Molecule | increase of phosphorylated MARCKS [1] [%] | rescue of MARCKS ED inhibition of acrosomal exocytosis [2]
1 | CNc1ccc2oc(C[C@H]3O[C@@]4(CC[C@H]3C)O[C@H]([C@H](C)C(=O)c3ccc[nH]3)[C@H](C)C[C@H]4C)nc2c1C(=O)O [A23187] | 50 | –
2 | Phosphatidylinositol 4, 5-bisphosphate [PIP2] | – | able to recover the MARCKS ED inhibition
3 | Nc1ncnc2c1ncn2[C@@H]1O[C@H](CO)[C@@H](O[C@H]2O[C@H](CO)[C@@H](OP(=O)(O)O)[C@H](OP(=O)(O)O)[C@H]2O)[C@H]1OP(=O)(O)O [adenophostin, Adenophostin A] | – | rescued exocytosis impaired by MARCKS ED
4 | CCCCCCCCCCCCCC(=O)O[C@@H]1[C@@H](C)[C@@]2(O)[C@@H](C=C(CO)C[C@]3(O)C(=O)C(C)=C[C@@H]23)[C@@H]2C(C)(C)[C@]12OC(C)=O [PMA, phorbol 12-myristate 13-acetate] | 60 | –
5 | CC(=O)[C@H]1CC[C@H]2[C@@H]3CCC4=CC(=O)CC[C@]4(C)[C@H]3CC[C@]12C [progesterone] | 40 | –
